Assays:
[1] = Inhibition of human recombinant kallikrein using Pro-Phe-Arg-AMC as substrate pretreated with compound followed by substrate addition incubated for 60 mins by multilabel plate reader method
[2] = biological target: Trypsin (Homo sapiens, UniProt P07477+P07478+P35030); assay: Binding affinity to trypsin (unknown origin) assessed as inhibition constant; format: protein assay
[3] = biological target: Prothrombin (Homo sapiens, UniProt P00734); assay: Binding affinity to thrombin (unknown origin) assessed as inhibition constant
[4] = biological target: Complement factor D (Homo sapiens, UniProt P00746); assay: Binding affinity to factor D (unknown origin) assessed as inhibition constant
[5] = biological target: T1, Complement C1r subcomponent (Homo sapiens, UniProt P00736); assay: Binding affinity to C1R (unknown origin) assessed as inhibition constant
T1 sequence (P00736 whole entry): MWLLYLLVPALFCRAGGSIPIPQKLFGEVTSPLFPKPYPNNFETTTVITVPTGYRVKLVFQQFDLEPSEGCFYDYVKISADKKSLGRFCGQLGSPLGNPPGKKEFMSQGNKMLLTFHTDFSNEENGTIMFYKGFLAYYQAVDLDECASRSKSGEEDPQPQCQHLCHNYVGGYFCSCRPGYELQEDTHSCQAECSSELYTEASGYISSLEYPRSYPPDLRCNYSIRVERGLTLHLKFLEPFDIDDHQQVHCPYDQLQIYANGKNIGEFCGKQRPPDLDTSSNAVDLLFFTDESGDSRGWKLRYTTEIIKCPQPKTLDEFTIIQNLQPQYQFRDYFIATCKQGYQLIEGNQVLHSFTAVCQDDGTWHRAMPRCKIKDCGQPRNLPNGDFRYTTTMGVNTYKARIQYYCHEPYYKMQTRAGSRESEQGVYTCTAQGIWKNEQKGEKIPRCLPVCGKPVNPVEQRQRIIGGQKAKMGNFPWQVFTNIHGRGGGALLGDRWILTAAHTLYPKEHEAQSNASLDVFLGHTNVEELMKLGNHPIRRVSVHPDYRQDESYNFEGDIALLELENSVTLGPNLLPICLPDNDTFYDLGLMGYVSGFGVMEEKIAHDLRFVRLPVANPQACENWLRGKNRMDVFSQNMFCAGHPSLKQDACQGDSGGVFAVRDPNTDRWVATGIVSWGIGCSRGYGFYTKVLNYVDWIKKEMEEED

[6] = biological target: T2, Complement C1s subcomponent (Homo sapiens, UniProt P09871); assay: Binding affinity to human C1S assessed as inhibition constant
T2 sequence (P09871 whole entry): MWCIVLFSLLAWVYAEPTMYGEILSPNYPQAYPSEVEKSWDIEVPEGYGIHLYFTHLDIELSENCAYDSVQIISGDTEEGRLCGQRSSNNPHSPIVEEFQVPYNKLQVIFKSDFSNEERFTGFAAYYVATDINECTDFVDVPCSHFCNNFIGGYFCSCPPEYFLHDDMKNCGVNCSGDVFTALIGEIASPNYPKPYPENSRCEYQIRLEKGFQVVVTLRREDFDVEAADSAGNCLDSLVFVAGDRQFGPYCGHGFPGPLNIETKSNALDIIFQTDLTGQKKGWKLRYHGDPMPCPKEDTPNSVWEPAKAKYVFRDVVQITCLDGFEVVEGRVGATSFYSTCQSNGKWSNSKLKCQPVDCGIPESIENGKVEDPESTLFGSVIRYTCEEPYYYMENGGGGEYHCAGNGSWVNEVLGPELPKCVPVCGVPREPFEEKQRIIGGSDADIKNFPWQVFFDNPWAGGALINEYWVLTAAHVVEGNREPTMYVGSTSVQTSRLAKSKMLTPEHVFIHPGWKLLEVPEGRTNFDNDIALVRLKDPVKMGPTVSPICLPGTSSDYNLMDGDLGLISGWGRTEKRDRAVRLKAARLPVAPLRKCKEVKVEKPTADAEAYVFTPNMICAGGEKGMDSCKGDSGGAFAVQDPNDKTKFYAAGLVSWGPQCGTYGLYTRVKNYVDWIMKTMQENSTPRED

Complement factor D, sequence (P00746 whole entry): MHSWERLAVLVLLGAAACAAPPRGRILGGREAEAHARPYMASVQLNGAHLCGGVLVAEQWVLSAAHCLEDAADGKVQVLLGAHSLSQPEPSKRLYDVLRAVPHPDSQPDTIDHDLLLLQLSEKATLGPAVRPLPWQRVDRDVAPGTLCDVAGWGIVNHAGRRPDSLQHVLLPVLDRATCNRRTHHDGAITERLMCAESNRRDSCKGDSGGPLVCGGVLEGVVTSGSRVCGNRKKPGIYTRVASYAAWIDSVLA

IC50 [1] | Ki [2] | Ki [3] | Ki [4] | Ki [5] | Ki [6] | SMILES
> 30 µM |  |  |  |  |  | Cc1cc([C@H]2CN(c3cc(F)c4c(N)nncc4c3)CCN2c2cccc(F)c2)no1
 | 0.18 µM | > 50 µM | 3.7 µM | ≥ 50 µM | 0.07 µM | CCCc1c(-c2csc(-c3cc(C(=N)N)sc3SC)n2)cnn1-c1ccccn1

Reference: ChEMBL document CHEMBL5380871
